Results: the NIST ThermoML archive (doi:10.1007/s10765-007-0346-0)

Tests used:
[1] = 101.33 kPa, Liquid, Capillary tube (Ostwald / Ubbelohde) method
[2] = xn = mol fraction of the nth substance listed; conditions: 101 kPa, Liquid, Capillary tube (Ostwald / Ubbelohde) method

COC(C)(C)C [2-methoxy-2-methylpropane]
[1]
Conditions	kinematic viscosity [m2/s]
283.15 K	5.191e-07
298.15 K	4.529e-07
313.15 K	3.961e-07

COC(C)(C)C [2-methoxy-2-methylpropane] + CCC(C)CC
[2], x1 = 1
Conditions	kinematic viscosity [m2/s]
283.15 K	5.191e-07
298.15 K	4.529e-07
313.15 K	3.961e-07

COC(C)(C)C [2-methoxy-2-methylpropane] + CCCCCC
kinematic viscosity [m2/s], [2]
Conditions	283.15 K	298.15 K	313.15 K
x1 = 0.0479	5.097e-07	4.478e-07	4.017e-07
x1 = 0.0974	5.074e-07	4.465e-07	3.994e-07
x1 = 0.1983	5.034e-07	4.442e-07	3.96e-07
x1 = 0.2988	5.004e-07	4.427e-07	3.932e-07
x1 = 0.3979	4.99e-07	4.418e-07	3.91e-07
x1 = 0.4975	4.99e-07	4.413e-07	3.897e-07
x1 = 0.5974	4.996e-07	4.419e-07	3.895e-07
x1 = 0.6968	5.025e-07	4.431e-07	3.895e-07
x1 = 0.7911	5.059e-07	4.45e-07	3.913e-07
x1 = 0.8976	5.125e-07	4.484e-07	3.926e-07
x1 = 0.9486	5.147e-07	4.505e-07	3.94e-07

COC(C)(C)C [2-methoxy-2-methylpropane] + CCCCCCC
kinematic viscosity [m2/s], [2]
Conditions	283.15 K	298.15 K	313.15 K
x1 = 0.0431	6.606e-07	5.683e-07	4.926e-07
x1 = 0.0987	6.512e-07	5.599e-07	4.862e-07
x1 = 0.1892	6.353e-07	5.461e-07	4.767e-07
x1 = 0.2958	6.168e-07	5.3e-07	4.658e-07
x1 = 0.3844	6.03e-07	5.169e-07	4.569e-07
x1 = 0.4986	5.845e-07	5.012e-07	4.454e-07
x1 = 0.6007	5.7e-07	4.881e-07	4.347e-07
x1 = 0.6999	5.567e-07	4.777e-07	4.246e-07
x1 = 0.7998	5.421e-07	4.68e-07	4.144e-07
x1 = 0.8997	5.298e-07	4.604e-07	4.047e-07
x1 = 0.9499	5.241e-07	4.566e-07	4.004e-07

CCC(C)CC [3-methylpentane]
[1]
Conditions	kinematic viscosity [m2/s]
283.15 K	4.928e-07
298.15 K	4.366e-07
313.15 K	3.881e-07

CCC(C)CC [3-methylpentane] + CC(C)OC(C)C
kinematic viscosity [m2/s], [2]
Conditions	283.15 K	298.15 K	313.15 K
x2 = 0	4.928e-07	4.366e-07	3.881e-07
x2 = 0.0498	4.914e-07	4.364e-07	3.872e-07
x2 = 0.1011	4.903e-07	4.355e-07	3.861e-07
x2 = 0.201	4.886e-07	4.348e-07	3.847e-07
x2 = 0.3018	4.877e-07	4.342e-07	3.837e-07
x2 = 0.4014	4.871e-07	4.339e-07	3.83e-07
x2 = 0.501	4.876e-07	4.338e-07	3.827e-07
x2 = 0.5993	4.883e-07	4.344e-07	3.831e-07
x2 = 0.6973	4.897e-07	4.352e-07	3.833e-07
x2 = 0.8014	4.912e-07	4.366e-07	3.842e-07
x2 = 0.8997	4.934e-07	4.377e-07	3.849e-07
x2 = 0.9501	4.947e-07	4.385e-07	3.854e-07

CCC(C)CC [3-methylpentane] + CCCCOCCCC
kinematic viscosity [m2/s], [2]
Conditions	283.15 K	298.15 K	313.15 K
x2 = 0.0498	5.151e-07	4.505e-07	4.026e-07
x2 = 0.1011	5.383e-07	4.655e-07	4.176e-07
x2 = 0.1884	5.796e-07	4.975e-07	4.427e-07
x2 = 0.2989	6.32e-07	5.415e-07	4.712e-07
x2 = 0.4033	6.843e-07	5.846e-07	5.031e-07
x2 = 0.4999	7.344e-07	6.244e-07	5.374e-07
x2 = 0.5992	7.877e-07	6.669e-07	5.73e-07
x2 = 0.7016	8.46e-07	7.116e-07	6.088e-07
x2 = 0.799	9.03e-07	7.548e-07	6.442e-07
x2 = 0.9001	9.657e-07	8.021e-07	6.804e-07
x2 = 0.9496	9.979e-07	8.257e-07	6.992e-07

CCC(C)CC [3-methylpentane] + COC(C)(C)C
kinematic viscosity [m2/s], [2]
Conditions	283.15 K	298.15 K	313.15 K
x2 = 0.048	4.915e-07	4.361e-07	3.87e-07
x2 = 0.0967	4.906e-07	4.357e-07	3.859e-07
x2 = 0.1961	4.893e-07	4.348e-07	3.843e-07
x2 = 0.2982	4.895e-07	4.347e-07	3.836e-07
x2 = 0.3995	4.906e-07	4.351e-07	3.834e-07
x2 = 0.4983	4.923e-07	4.361e-07	3.836e-07
x2 = 0.5992	4.954e-07	4.379e-07	3.85e-07
x2 = 0.6984	4.995e-07	4.406e-07	3.863e-07
x2 = 0.7978	5.048e-07	4.435e-07	3.888e-07
x2 = 0.8996	5.113e-07	4.478e-07	3.918e-07
x2 = 0.9491	5.145e-07	4.502e-07	3.937e-07

CC(C)OC(C)C [diisopropyl ether]
[1]
Conditions	kinematic viscosity [m2/s]
283.15 K	4.959e-07
298.15 K	4.392e-07
313.15 K	3.861e-07

CC(C)OC(C)C [diisopropyl ether] + CCC(C)CC
[2], x1 = 1
Conditions	kinematic viscosity [m2/s]
283.15 K	4.959e-07
298.15 K	4.392e-07
313.15 K	3.861e-07

CC(C)OC(C)C [diisopropyl ether] + CCCCCC
kinematic viscosity [m2/s], [2]
Conditions	283.15 K	298.15 K	313.15 K
x1 = 0.0523	5.094e-07	4.477e-07	4.011e-07
x1 = 0.0915	5.076e-07	4.467e-07	3.994e-07
x1 = 0.189	5.031e-07	4.446e-07	3.961e-07
x1 = 0.3016	4.99e-07	4.426e-07	3.929e-07
x1 = 0.398	4.963e-07	4.409e-07	3.907e-07
x1 = 0.4998	4.944e-07	4.397e-07	3.889e-07
x1 = 0.6007	4.931e-07	4.383e-07	3.874e-07
x1 = 0.6975	4.932e-07	4.381e-07	3.866e-07
x1 = 0.7976	4.934e-07	4.381e-07	3.859e-07
x1 = 0.8959	4.945e-07	4.386e-07	3.856e-07
x1 = 0.9432	4.953e-07	4.385e-07	3.86e-07

CC(C)OC(C)C [diisopropyl ether] + CCCCCCC
kinematic viscosity [m2/s], [2]
Conditions	283.15 K	298.15 K	313.15 K
x1 = 0.0508	6.578e-07	5.658e-07	4.91e-07
x1 = 0.1002	6.473e-07	5.567e-07	4.831e-07
x1 = 0.1986	6.265e-07	5.387e-07	4.719e-07
x1 = 0.2973	6.068e-07	5.218e-07	4.61e-07
x1 = 0.3992	5.88e-07	5.055e-07	4.498e-07
x1 = 0.4991	5.693e-07	4.9e-07	4.385e-07
x1 = 0.5979	5.533e-07	4.779e-07	4.273e-07
x1 = 0.7009	5.372e-07	4.679e-07	4.166e-07
x1 = 0.8008	5.215e-07	4.588e-07	4.058e-07
x1 = 0.8954	5.091e-07	4.496e-07	3.96e-07
x1 = 0.95	5.016e-07	4.443e-07	3.909e-07

CCCCCCC [heptane]
[1]
Conditions	kinematic viscosity [m2/s]
283.15 K	6.697e-07
298.15 K	5.754e-07
313.15 K	4.986e-07

CCCCCCC [heptane] + CC(C)OC(C)C
[2], x2 = 0
Conditions	kinematic viscosity [m2/s]
283.15 K	6.697e-07
298.15 K	5.754e-07
313.15 K	4.986e-07

CCCCCC [hexane]
[1]
Conditions	kinematic viscosity [m2/s]
283.15 K	5.125e-07
298.15 K	4.493e-07
313.15 K	4.039e-07

CCCCCC [hexane] + CC(C)OC(C)C
[2], x2 = 0
Conditions	kinematic viscosity [m2/s]
283.15 K	5.125e-07
298.15 K	4.493e-07
313.15 K	4.039e-07
